Experimental data as given in US20070027144A1, “Novel use of cannabinoid receptor agonist” (SHIONOGI & CO., LTD., priority 2003, published 2007).

Experiments:
[1] = tested on: BN rats; test: Antigen-induced bronchial hyperresponsiveness in BN rats (chronic model); format: in vivo; conditions: oral for 8 days
Protocol: (§1) Antigen-induced bronchial hyperresponsiveness in BN rats: Brown Norway (BN) rats (Charles River Japan) were actively sensitized by the intraperitoneal injection of 1 mL mixture containing aluminum hydroxide gel (1 mg) and ovalbumin (0.1 mg, OVA). Ten days later, antigen challenge was performed by the inhalation of an aerosolized 1% OVA solution for 30 min using an ultrasonic nebulizer. ACh was intravenously injected to rats 24 h after antigen challenge under sodium pentobarbital anesthesia (80 mg/kg, i.p.) by increasing doses of ACh every 5 min, then bronchoconstrictor response observed immediately after each ACh injection was measured by the method of Konzett & Rössler with some modifications. Briefly, trachea of rats was incised and a cannula was attached to lung side. An artificial respirator (SN-480-7, Shinano) was connected to the cannula, and then a fixed amount of air (tidal volume: 3 mL, ventilation frequency: 60 times/min) continuously insufflated to maintain respiration. The insufflation pressure overflowed from inhalation tube was monitored by a pressure transducer (TP-400T, Nihon Kohden) and recorded on a recorder (WT-645G, Nihon Kohden) through a carrier amplifier (AP-601G, Nihon Kohden). Test compounds were administered orally once 1 h before antigen challenge. The area under the curve (AUC) calculated from dose-response curve for ACh was compared between vehicle-treated control group and test compound-treated group, and then statistical significance was analyzed concerning inhibitory effect on bronchial hyperresponsiveness.
(§2) Antigen-induced bronchial hyperresponsiveness in BN rats: BN rats were actively sensitized by the intraperitoneal injection of a mixture containing aluminum hydroxide gel and ovalbumin. Twelve days later, antigen challenge was performed by the inhalation of an aerosolized 1% OVA solution or physiological saline for 30 min using an ultrasonic nebulizer (NE-U12, Omron). […] Inhibitory effect on bronchial hyperresponsiveness was evaluated 24 h after last antigen challenge by the method described in the section of Experimental Example 1.

[2] = tested on: BN rats; test: Antigen-induced airway inflammatory cell infiltration in BN rats (chronic model); format: in vivo; conditions: oral for 8 days, 100 mg/kg, P<0.01
Protocol: as §2, with “Omron). To establish chronic bronchial hyerreactivity model, this procedure was repeated 3 times with 1-week intervals. Test compounds were administered orally for 8 days from the day of third antigen challenge. On the day of third antigen challenge, test compounds were administered 1 h before challenge.” for “Omron).”
Antigen-induced airway inflammatory cell infiltration in BN rats: After finishing experiment mentioned above, the lungs were washed 3 times with 5 mL of physiological saline through tracheal cannula using injection syringe. Then the cell number in the washing was determined. […] Differential cell counts were performed after May-Grünwald-Giemsa staining, and then statistical significance was analyzed concerning inhibitory effect on airway inflammatory cell infiltration as in the section of Experimental Example 2.

[3] = tested on: guinea pigs; test: Antigen-induced bronchial hyperresponsiveness in guinea pigs (acute model); format: in vivo; conditions: oral 1 h before antigen challenge
Protocol: (§3) Antigen-induced bronchial hyperresponsiveness in guinea pigs: Guinea pigs (Charles River Japan) held in an exposure chamber were actively sensitized by the inhalation of an aerosolized 1% OVA solution for 10 min using an ultrasonic nebulizer (NE-U12, Omron) twice with an interval of 1 week. One week later, antigen challenge was performed by inhalation of an aerosolized 1% OVA generated by an ultrasonic nebulizer for 5 min. Test compounds were administered orally 1 h before antigen challenge. In addition, guinea pigs were treated with diphenhydramine (10 mg/kg, i.p.), an antihistamine, to protect the animals from anaphylactic death 10 min before antigen challenge. ACh was intravenously injected to guinea pigs 24 h after antigen challenge under urethane anesthesia (1.4 g/kg, i.p.) by increasing doses of ACh every 5 min, then bronchoconstrictor response observed immediately after each ACh injection was measured by the method of Konzett & Rössler with some modifications. Briefly, trachea of guinea pigs was incised and a cannula was attached to the lung side. An artificial respirator (SN-480-7, Shinano) was connected to the cannula, and then a fixed amount of air (tidal volume: 4 mL, ventilation frequency: 60 times/min) continuously insufflated to maintain respiration. The insufflation pressure overflowed from inhalation tube was monitored by a pressure transducer (TP-400T, Nihon Kohden) and recorded on a recorder (WT-645G, Nihon Kohden) through a carrier amplifier (AP-601G, Nihon Kohden). The area under the curve (AUC) calculated from dose-response curve for ACh was compared between vehicle-treated control group and test compound-treated group, and then statistical significance was analyzed concerning inhibitory effect on bronchial hyperresponsiveness.

[4] = tested on: guinea pigs; test: Antigen-induced airway inflammatory cell infiltration in guinea pigs (acute model); format: in vivo; conditions: oral
Protocol: as §3, with “An artificial respirator (SN-480-7, Shinano) was connected to the cannula, and then a fixed amount of air (tidal volume: 4 mL, ventilation frequency: 60 times/min) continuously insufflated to maintain respiration.” left out
Antigen-induced airway inflammatory cell infiltration in guinea pigs: After finishing experiment mentioned above, the lungs are washed 3 times with 10 mL of physiological saline through tracheal cannula using injection syringe. Then the cell number in the washing was determined. […] Differential cell counts were performed after May-Grünwald-Giemsa staining, and then statistical significance was analyzed concerning inhibitory effect on airway inflammatory cell infiltration.

[5] = tested on: guinea pigs; test: Antigen-induced bronchial hyperresponsiveness in guinea pigs (chronic model); format: in vivo; conditions: oral for 8 days, 30 mg/kg, P<0.05
Protocol: as §3, with “An artificial respirator (SN-480-7, Shinano) was connected to the cannula, and then a fixed amount of air (tidal volume: 4 mL, ventilation frequency: 60 times/min) continuously insufflated to maintain respiration.” left out, “The area under the curve (AUC) calculated from dose-response curve for ACh was compared between vehicle-treated control group and test compound-treated group, and then statistical significance was analyzed concerning inhibitory effect on bronchial hyperresponsiveness.” left out

[6] = tested on: guinea pigs; test: Antigen-induced airway inflammatory cell infiltration in guinea pigs (chronic model); format: in vivo; conditions: oral for 8 days, 30 mg/kg, P<0.01
Protocol: (§4) Antigen-induced bronchial hyperresponsiveness in guinea pigs: Guinea pigs held in an exposure chamber were actively sensitized by the inhalation of an aerosolized 1% OVA solution for 10 min using an ultrasonic nebulizer (NE-U12, Omron) twice with an interval of 1 week. One week and 2 weeks later, antigen challenge was performed twice by inhalation of an aerosolized 1% OVA generated by an ultrasonic nebulizer for 5 min. Test compounds were administered orally for 8 days from the day of first antigen challenge. On the day of each antigen challenge, test compounds were administered 1 h before challenge. […] Inhibitory effect on bronchial hyperresponsiveness was evaluated 24 h after last antigen challenge by the method described in the section of Experimental Example 7. The area under the curve (AUC) calculated from dose-response curve for ACh was compared between vehicle-treated control group and test compound-treated group, and then statistical significance was analyzed concerning inhibitory effect on bronchial hyperresponsiveness.
Antigen-induced airway inflammatory cell infiltration in guinea pigs: After finishing experiment mentioned above, the lungs are washed 3 times with 10 mL of physiological saline through tracheal cannula using injection syringe. Then the cell number in the washing was determined. […]

[7] = tested on: guinea pigs; test: Antigen-induced mucus secretion in guinea pigs (chronic model); format: in vivo; conditions: oral for 8 days, 30 mg/kg, P<0.01
Protocol: as §4
Antigen-induced mucus secretion in guinea pigs: After measurement of bronchial hyperresponsiveness, the lungs are washed 3 times with 10 mL of physiological saline through tracheal cannula using injection syringe, and then the washing was centrifuged. […] Statistical significance was analyzed concerning inhibitory effect on mucus secretion.

[8] = tested on: BN rats; test: Antigen-induced bronchial hyperresponsiveness in BN rats (acute model); format: in vivo, Brown Norway (BN) rats; conditions: oral once 1 h before antigen challenge, 10 mg/kg, P<0.01
Protocol: as §1, with “An artificial respirator (SN-480-7, Shinano) was connected to the cannula, and then a fixed amount of air (tidal volume: 3 mL, ventilation frequency: 60 times/min) continuously insufflated to maintain respiration.” left out, “Test compounds were administered orally once 1 h before antigen challenge.” left out

[9] = tested on: BN rats; test: Antigen-induced airway inflammatory cell infiltration in BN rats (acute model); format: in vivo, Brown Norway (BN) rats; conditions: oral, P<0.01
Protocol: as §1, with “An artificial respirator (SN-480-7, Shinano) was connected to the cannula, and then a fixed amount of air (tidal volume: 3 mL, ventilation frequency: 60 times/min) continuously insufflated to maintain respiration.” left out, “Test compounds were administered orally once 1 h before antigen challenge.” left out, “hyperresponsiveness. […]” for “hyperresponsiveness.”

[10] = tested on: BN rats; test: Antigen-induced mucus secretion in BN rats (acute model); format: in vivo, Brown Norway (BN) rats; conditions: oral, 10 mg/kg, P<0.01
Protocol: as §1, with “An artificial respirator (SN-480-7, Shinano) was connected to the cannula, and then a fixed amount of air (tidal volume: 3 mL, ventilation frequency: 60 times/min) continuously insufflated to maintain respiration.” left out, “Test compounds were administered orally once 1 h before antigen challenge.” left out, “hyperresponsiveness. […]” for “hyperresponsiveness.”

[11] = tested on: guinea pigs; test: Bronchodilating effect in guinea pigs (ACh-induced bronchoconstriction); format: in vivo; conditions: oral 1 h before ACh injection, 10 mg/kg, P<0.01
Protocol: Under urethane anesthesia (1.4 g/kg, i.p.), ACh was intravenously injected to guinea pigs by increasing doses of ACh every 5 min, then bronchoconstrictor response observed immediately after each ACh injection was measured by the method of Konzett & Rössler with some modifications. Briefly, trachea of guinea pigs was incised and a cannula was attached to the lung side. An artificial respirator (SN-480-7, Shinano) was connected to the cannula, and then a fixed amount of air (tidal volume: 4 mL, ventilation frequency: 60 times/min) continuously insufflated to maintain respiration. The insufflation pressure overflowed from inhalation tube was monitored by a pressure transducer (TP-400T, Nihon Kohden) and recorded on a recorder (WT-645G, Nihon Kohden) through a carrier amplifier (AP-601G, Nihon Kohden). Test compounds were administered orally 1 h before ACh injection, then the effect on the dose-response curve of ACh was examined. Statistical significance was analyzed concerning broncohdilating effect in guinea pigs.

CSC(=S)N1CC2(CCCCC2)CS/C1=N\c1ccc(OC(F)(F)F)cc1 [Compound I-12]
significant effect: inhibitory effect on bronchial hyperresponsiveness ([1]; 30 mg/kg, P<0.01) | inhibitory effect on bronchial hyperresponsiveness ([1]; 100 mg/kg, P<0.05) | inhibitory effect on airway inflammatory cell infiltration [2] | inhibitory effect on bronchial hyperresponsiveness (AUC of ACh dose-response curve vs vehicle) ([3]; 10 mg/kg, P<0.05) | inhibitory effect on airway inflammatory cell infiltration ([4]; 10 mg/kg, P<0.05) | inhibitory effect on bronchial hyperresponsiveness (AUC of ACh dose-response curve vs vehicle) [5] | inhibitory effect on airway inflammatory cell infiltration [6] | inhibitory effect on mucus secretion (mucin levels in lung washing) [7]

CCCCn1c2c(cc(C(=O)NC(C)(C)c3ccccc3)c1=O)CCCCCC2 [Compound 4-320]
significant effect: inhibitory effect on bronchial hyperresponsiveness (AUC of ACh dose-response curve vs vehicle) [8] | inhibitory effect on airway inflammatory cell infiltration ([9]; 1 mg/kg) | inhibitory effect on airway inflammatory cell infiltration ([9]; 10 mg/kg) | inhibitory effect on mucus secretion (mucin levels in lung washing) [10] | inhibitory effect on bronchial hyperresponsiveness ([1]; 3 mg/kg, P<0.01) | inhibitory effect on bronchial hyperresponsiveness (AUC of ACh dose-response curve vs vehicle) ([3]; 1 mg/kg, P<0.01) | inhibitory effect on bronchial hyperresponsiveness (AUC of ACh dose-response curve vs vehicle) ([3]; 10 mg/kg, P<0.05) | inhibitory effect on airway inflammatory cell infiltration ([4]; 1 mg/kg, P<0.05) | inhibitory effect on airway inflammatory cell infiltration ([4]; 10 mg/kg, P<0.01) | bronchodilating effect (effect on the dose-response curve of ACh) [11]
